Results taken from patent US10351522B2, “Sulfonamide derivative and pharmaceutically acceptable acid addition salt thereof” (UNIVERSITY OF TSUKUBA, priority 2015, dated 2019).

How the values were obtained:
[1] = target: T1, human OX2R (Homo sapiens, UniProt O43614); experiment: Agonist activity against OX2R: intracellular calcium (Fura-2AM, FDSS7000) in CHOOX2R cells; format: cell-based; conditions: relative to orexin-A as full agonist (100%)
T1 construct: expressed in transfected cells; host or cells: CHO (Chinese hamster ovary) cells, line CHOOX2R, co-expressing NFAT-luciferase
T1 sequence (O43614 1-444): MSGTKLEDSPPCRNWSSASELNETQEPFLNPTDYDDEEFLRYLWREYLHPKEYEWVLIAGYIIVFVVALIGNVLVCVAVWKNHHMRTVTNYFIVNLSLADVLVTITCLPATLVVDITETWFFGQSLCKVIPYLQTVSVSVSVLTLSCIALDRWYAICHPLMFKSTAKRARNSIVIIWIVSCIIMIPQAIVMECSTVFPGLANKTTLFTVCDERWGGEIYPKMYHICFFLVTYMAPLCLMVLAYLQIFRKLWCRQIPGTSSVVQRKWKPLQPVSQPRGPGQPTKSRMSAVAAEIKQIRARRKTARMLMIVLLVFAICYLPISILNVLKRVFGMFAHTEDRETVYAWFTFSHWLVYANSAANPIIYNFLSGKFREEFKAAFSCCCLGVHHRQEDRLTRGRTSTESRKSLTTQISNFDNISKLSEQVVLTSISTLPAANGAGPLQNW
Description: (§1) Evaluation of Agonist Activity Against OX1R and OX2R
(§2) NAFT-luciferase gene and human OX1R gene were constitutively expressed in CHO cell, which is a cell line derived from Chinese hamster ovary to establish a cell line (CHOOX1R) and NAFT-luciferase gene and human OX2R gene were constitutively expressed in CHO cell to establish a cell line (CHOOX2R). The respective cells were seeded in a 96-well Multiplate at 10,000 cells/well and cultured in a 5% FBS (Thermo Scientific)-added DMEM medium (Sigma-Aldrich) for 48 hr. The medium was removed, an assay buffer (20 mM HEPES (Sigma-Aldrich), Hanks' balanced salt solution (Gibco), 0.1% BSA (Sigma-Aldrich), 2.5 mM probenecid acid (Wako Pure Chemical Industries, Ltd.)) (100 μL) containing 5 μM Fura-2AM (Cayman Chemical) was added, and the cells were incubated for 60 min. The buffer containing Fura-2AM was removed, and an assay buffer (75 μL) was added. An assay buffer (25 μL) containing a test compound was added thereto to start the reaction. Changes in the intracellular calcium ion concentration due to the reaction were measured by measuring the fluorescence intensity ratio by dual wavelength excitation at 340 and 380 nm, by using FDSS7000 (Hamamatsu Photonics K.K.). The test compound was dissolved in DMSO to 10 mM, and diluted with the assay buffer to a final concentration of 10^−7M to 10^−5M (final concentration of DMSO 1%).
(§3) (As used herein, Response in Table 21 to Table 27 is a value obtained by dividing the agonist activity value, when the test compound is evaluated with orexin-A as a full-agonist (maximum value of agonist activity: 100%), at 10 μM, 1.0 μM, 0.1 μM by the agonist activity value of orexin-A.)

[2] = target: T2, human OX1R (Homo sapiens, UniProt O43613); experiment: Agonist activity against OX1R: intracellular calcium (Fura-2AM, FDSS7000) in CHOOX1R cells; format: cell-based; conditions: relative to orexin-A as full agonist (100%)
T2 construct: expressed in transfected cells; host or cells: CHO (Chinese hamster ovary) cells, line CHOOX1R, co-expressing NFAT-luciferase
T2 sequence (O43613 1-425): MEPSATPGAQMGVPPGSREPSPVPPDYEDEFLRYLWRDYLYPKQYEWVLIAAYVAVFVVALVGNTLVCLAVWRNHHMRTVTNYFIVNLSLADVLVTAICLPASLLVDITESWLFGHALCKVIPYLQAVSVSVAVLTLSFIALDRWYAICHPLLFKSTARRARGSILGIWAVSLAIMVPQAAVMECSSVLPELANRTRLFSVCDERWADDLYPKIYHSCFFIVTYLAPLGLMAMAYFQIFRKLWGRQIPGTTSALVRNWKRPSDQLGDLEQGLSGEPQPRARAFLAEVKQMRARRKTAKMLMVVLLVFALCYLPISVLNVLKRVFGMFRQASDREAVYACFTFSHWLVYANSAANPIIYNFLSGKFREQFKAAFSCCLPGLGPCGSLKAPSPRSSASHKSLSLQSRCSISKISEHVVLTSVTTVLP
Description: as §1, §2, §3

COc1ccc(-c2cccc(C(=O)N(C)C)c2)cc1S(=O)(=O)Nc1cccc(NC(=O)c2ccccc2)c1 [Example 1, 3′-(N-(3-benzamidophenyl)sulfamoyl)-4′-methoxy-N,N-dimethyl-[1,1′-biphenyl]-3-carboxamide]
Response (%) OX2R ([1]; 0.1 μM test compound): <5%
Response (%) OX2R ([1]; 1.0 μM test compound): 6%
Response (%) OX2R ([1]; 10 μM test compound): 67%
Emax at 0.1 µM ([2]; 0.1 μM test compound, read-out: Response (%) OX1R): < 5%
Emax at 1 µM ([2]; 1.0 μM test compound, read-out: Response (%) OX1R): < 5%
Emax at 10 µM ([2]; 10 μM test compound, read-out: Response (%) OX1R): < 5%

COc1ccc(-c2cccc(C(=O)N(C)C)c2)cc1S(=O)(=O)Nc1cccc(NC(=O)c2ccccc2Br)c1 [Example 2]
Response (%) OX2R ([1]; 0.1 μM test compound): <5%
Response (%) OX2R ([1]; 1.0 μM test compound): 26%
Response (%) OX2R ([1]; 10 μM test compound): 74%
Response (%) OX1R ([2]; 0.1 μM test compound): 13%
Response (%) OX1R ([2]; 1.0 μM test compound): 11%
Response (%) OX1R ([2]; 10 μM test compound): 32%

COc1ccc(-c2cccc(C(=O)N(C)C)c2)cc1S(=O)(=O)Nc1cccc(NC(=O)c2cccc(Br)c2)c1 [Example 3]
Response (%) OX2R ([1]; 0.1 μM test compound): <5%
Response (%) OX2R ([1]; 1.0 μM test compound): 6%
Response (%) OX2R ([1]; 10 μM test compound): 23%
Response (%) OX1R ([2]; 0.1 μM test compound): 14%
Response (%) OX1R ([2]; 1.0 μM test compound): 9%
Response (%) OX1R ([2]; 10 μM test compound): 12%

COc1ccc(-c2cccc(C(=O)N(C)C)c2)cc1S(=O)(=O)Nc1cccc(NC(=O)c2ccncc2)c1 [Example 4]
Response (%) OX2R ([1]; 0.1 μM test compound): <5%
Response (%) OX2R ([1]; 1.0 μM test compound): <5%
Response (%) OX2R ([1]; 10 μM test compound): 16%
Response (%) OX1R ([2]; 0.1 μM test compound): 10%
Response (%) OX1R ([2]; 1.0 μM test compound): 8%
Response (%) OX1R ([2]; 10 μM test compound): <5%

COc1ccc(-c2cccc(C(=O)N(C)C)c2)cc1S(=O)(=O)Nc1cccc(NC(=O)c2ccc3c(c2)OCO3)c1 [Example 5]
Response (%) OX2R ([1]; 0.1 μM test compound): 10%
Response (%) OX2R ([1]; 1.0 μM test compound): 8%
Response (%) OX2R ([1]; 10 μM test compound): 19%
Response (%) OX1R ([2]; 0.1 μM test compound): 8%
Response (%) OX1R ([2]; 1.0 μM test compound): 8%
Response (%) OX1R ([2]; 10 μM test compound): 7%

COc1ccc(-c2cccc(C(=O)N(C)C)c2)cc1S(=O)(=O)Nc1cccc(NC(=O)c2ccccc2N(C)C)c1 [Example 6]
Response (%) OX2R ([1]; 0.1 μM test compound): 9%
Response (%) OX2R ([1]; 1.0 μM test compound): 17%
Response (%) OX2R ([1]; 10 μM test compound): 32%
Response (%) OX1R ([2]; 0.1 μM test compound): 7%
Response (%) OX1R ([2]; 1.0 μM test compound): 7%
Response (%) OX1R ([2]; 10 μM test compound): 6%

COc1ccc(-c2cccc(C(=O)N(C)C)c2)cc1S(=O)(=O)Nc1cccc(NC(=O)c2cccc(N(C)C)c2)c1 [Example 7]
Response (%) OX2R ([1]; 0.1 μM test compound): 8%
Response (%) OX2R ([1]; 1.0 μM test compound): 10%
Response (%) OX2R ([1]; 10 μM test compound): 24%
Response (%) OX1R ([2]; 0.1 μM test compound): 6%
Response (%) OX1R ([2]; 1.0 μM test compound): 8%
Response (%) OX1R ([2]; 10 μM test compound): 27%

COc1ccc(-c2cccc(C(=O)N(C)C)c2)cc1S(=O)(=O)Nc1cccc(NC(=O)c2ccc(N(C)C)cc2)c1 [Example 8]
Response (%) OX2R ([1]; 0.1 μM test compound): 8%
Response (%) OX2R ([1]; 1.0 μM test compound): 13%
Response (%) OX2R ([1]; 10 μM test compound): 61%
Response (%) OX1R ([2]; 0.1 μM test compound): 9%
Response (%) OX1R ([2]; 1.0 μM test compound): 8%
Response (%) OX1R ([2]; 10 μM test compound): 27%

COc1ccc(-c2cccc(C(=O)N(C)C)c2)cc1S(=O)(=O)Nc1cccc(NC(=O)c2ccc3ccccc3c2)c1 [Example 9]
Response (%) OX2R ([1]; 0.1 μM test compound): <5%
Response (%) OX2R ([1]; 1.0 μM test compound): 41%
Response (%) OX2R ([1]; 10 μM test compound): 47%
Response (%) OX1R ([2]; 0.1 μM test compound): 5%
Response (%) OX1R ([2]; 1.0 μM test compound): 6%
Response (%) OX1R ([2]; 10 μM test compound): 5%

COc1ccc(-c2cccc(C(=O)N(C)C)c2)cc1S(=O)(=O)Nc1cccc(NC(=O)c2cccc3ccccc23)c1 [Example 10]
Response (%) OX2R ([1]; 0.1 μM test compound): 14%
Response (%) OX2R ([1]; 1.0 μM test compound): 80%
Response (%) OX2R ([1]; 10 μM test compound): 98%
Response (%) OX1R ([2]; 0.1 μM test compound): 5%
Response (%) OX1R ([2]; 1.0 μM test compound): 6%
Response (%) OX1R ([2]; 10 μM test compound): 11%

COc1ccc(-c2cccc(C(=O)N(C)C)c2)cc1S(=O)(=O)Nc1cccc(NC(=O)C[S+]([O-])C(c2ccccc2)c2ccccc2)c1 (stereo not drawn) [Example 13]
Response (%) OX2R ([1]; 0.1 μM test compound): 11%
Response (%) OX2R ([1]; 1.0 μM test compound): 117%
Response (%) OX2R ([1]; 10 μM test compound): 109%
Response (%) OX1R ([2]; 0.1 μM test compound): <5%
Response (%) OX1R ([2]; 1.0 μM test compound): 63%
Response (%) OX1R ([2]; 10 μM test compound): 107%

COc1ccc(-c2cccc(C(=O)N(C)C)c2)cc1S(=O)(=O)Nc1cccc(NC(=O)/C=C/c2ccoc2)c1 [Example 14]
Response (%) OX2R ([1]; 0.1 μM test compound): <5%
Response (%) OX2R ([1]; 1.0 μM test compound): 18%
Response (%) OX2R ([1]; 10 μM test compound): 74%
Response (%) OX1R ([2]; 0.1 μM test compound): <5%
Response (%) OX1R ([2]; 1.0 μM test compound): <5%
Response (%) OX1R ([2]; 10 μM test compound): <5%

COc1ccc(-c2cccc(C(=O)N(C)C)c2)cc1S(=O)(=O)Nc1cccc(NC(=O)c2cccc(C)c2)c1 [Example 15]
Response (%) OX2R ([1]; 0.1 μM test compound): 12%
Response (%) OX2R ([1]; 1.0 μM test compound): 81%
Response (%) OX2R ([1]; 10 μM test compound): 114%
Response (%) OX1R ([2]; 0.1 μM test compound): <5%
Response (%) OX1R ([2]; 1.0 μM test compound): <5%
Response (%) OX1R ([2]; 10 μM test compound): <5%

COc1ccc(-c2cccc(C(=O)N(C)C)c2)cc1S(=O)(=O)Nc1cccc(NC(=O)c2ccccc2C)c1 [Example 16]
Response (%) OX2R ([1]; 0.1 μM test compound): <5%
Response (%) OX2R ([1]; 1.0 μM test compound): 19%
Response (%) OX2R ([1]; 10 μM test compound): 82%
Response (%) OX1R ([2]; 0.1 μM test compound): <5%
Response (%) OX1R ([2]; 1.0 μM test compound): <5%
Response (%) OX1R ([2]; 10 μM test compound): 10%

COc1ccc(-c2cccc(C(=O)N(C)C)c2)cc1S(=O)(=O)Nc1cccc(NC(=O)c2ccc(C)cc2)c1 [Example 17]
Response (%) OX2R ([1]; 0.1 μM test compound): <5%
Response (%) OX2R ([1]; 1.0 μM test compound): 9%
Response (%) OX2R ([1]; 10 μM test compound): 41%
Response (%) OX1R ([2]; 0.1 μM test compound): <5%
Response (%) OX1R ([2]; 1.0 μM test compound): <5%
Response (%) OX1R ([2]; 10 μM test compound): 13%

COc1ccccc1C(=O)Nc1cccc(NS(=O)(=O)c2cc(-c3cccc(C(=O)N(C)C)c3)ccc2OC)c1 [Example 18]
Response (%) OX2R ([1]; 0.1 μM test compound): <5%
Response (%) OX2R ([1]; 1.0 μM test compound): 6%
Response (%) OX2R ([1]; 10 μM test compound): 44%
Response (%) OX1R ([2]; 0.1 μM test compound): <5%
Response (%) OX1R ([2]; 1.0 μM test compound): <5%
Response (%) OX1R ([2]; 10 μM test compound): 15%

COc1ccc(C(=O)Nc2cccc(NS(=O)(=O)c3cc(-c4cccc(C(=O)N(C)C)c4)ccc3OC)c2)cc1 [Example 19]
Response (%) OX2R ([1]; 0.1 μM test compound): <5%
Response (%) OX2R ([1]; 1.0 μM test compound): 10%
Response (%) OX2R ([1]; 10 μM test compound): 58%
Response (%) OX1R ([2]; 0.1 μM test compound): <5%
Response (%) OX1R ([2]; 1.0 μM test compound): <5%
Response (%) OX1R ([2]; 10 μM test compound): <5%
